Source: patent US9423404B1, “Method of screening for an agent that enhances beige fat adipogenesis” (The Board of Trustees of the Leland Stanford Junior …, priority 2013, dated 2016)

Experiments:
[1] = system: differentiated human fibroblasts; assay: Lipolysis assay (glycerol release); assay type: cell-based; settings: for increase in glycerol release compared to the undifferentiated cells: 10 μM isoproterenol 24 hrs
Procedure: Lipolysis assay. To measure lipolysis activity, control and differentiated fibroblasts, were starved in DMEM containing 1% FBS overnight. Cells were then incubated for 24 hrs in HBSS (Hank's balanced salt solution) containing 2% fatty-acid-free BSA and 10 μM isoproterenol. The culture medium was collected for glycerol measurement using the free glycerol reagent (Sigma, St. Louis, Mo.).

CYP24A1 = assay: RT-qPCR of CYP24A1 (24-hydroxylase), marker of calcitriol responsiveness; assay type: cell-based, human; settings: H305Q mutant, 10 nM calcitriol, ex vivo
Procedure: FIG. 3. […] (A) Control and HVDRR fibroblasts were treated with vehicle (0.1% ethanol) or 10 nM calcitriol for 6 hr. RT-qPCR assays were carried out for CYP24A1 a marker of calcitriol responsiveness. DM denotes double mutant with H305Q mutation in the VDR and BSCL2 mutation. […] Relative gene expression of UCP1 in WT and HVDRR fibroblasts differentiated with DIMR or DIMR plus 10 nM calcitriol for 14 days.
Real-time RT-PCR. […] RNA was isolated using RNeasy Plus Mini Kit (Qiagen, Valencia, Calif.). cDNA was prepared using Maxima Universal First Strand cDNA Synthesis kit (Fisher Scientific, Pittsburgh, Pa.). Real time PCR was performed using the DyNAmo ColorFlash qPCR kit (Fisher Scientific). Relative changes in mRNA expression were assessed by the 2-ΔΔC(T) method and normalized to that of the reference gene glyceraldehyde phosphate dehydrogenase (GAPDH). The values from vehicle treated normal control fibroblasts were set at 1. Assays were performed in triplicate.

SMILES	induction of lipolysis compared to the H305Q single mutant ([1]; H305Q/BSCL2 double mutant)	increase in glycerol release compared to the undifferentiated cells ([1]; HVDRR cells differentiated with DIMR)	increase in glycerol release compared to the undifferentiated cells ([1]; WT control cells differentiated with DIMR) [fold]	induction of 24-hydroxylase (CYP24A1) expression by VDR (CYP24A1)
CC(C)NCC(O)c1ccc(O)c(O)c1 (stereo not shown) [isoproterenol]	significantly less induction of lipolysis	1.5-4 fold	2.5	
C=C1/C(=C\C=C2/CCC[C@]3(C)[C@@H]([C@H](C)CCCC(C)(C)O)CC[C@@H]23)C[C@@H](O)C[C@@H]1O [calcitriol]				rescues the induction
